Experimental findings from PubChem BioAssay (NCI) are described below.

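Where inhibition never reached the appropriate level, the endpoint shown equals the highest concentration tested. Otherwise, values were interpolated linearly from a five-concentration, 48-hour dose response in 96-well plates. TGI is the concentration that stops growth completely.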 Bounds are passed on as bounds.

Test systems include CCRF-CEM leukemia; HCT-15 colon; HL-60(TB) leukemia; HOP-62 NSCLC; MOLT-4 leukemia; NCI-H23 lung; NCI-H460 lung; NCI-H522 lung; OVCAR-4 ovarian; RPMI-8226 leukemia; SK-MEL-28 melanoma.
Experiment in all cases: growth of human tumour cells (NCI), 48 h

Consider `CCC(c1c[nH]c2ccc(Br)cc12)c1c[nH]c2ccc(Br)cc12`, for which the TGI in the assay on CCRF-CEM leukemia amounted to 13.7 µM; with HCT-15 colon, 15 µM; with HL-60(TB) leukemia, 16.3 µM; in the assay with HOP-62 NSCLC it was 22.3 µM; in the assay with MOLT-4 leukemia it was 4.56 µM; in the assay on NCI-H23 lung, 11 µM. The TGI in the assay on NCI-H460 lung stood at 6.82 µM; in the assay with NCI-H522 lung, 18.1 µM; with OVCAR-4 ovarian, 8.11 µM; in the assay with RPMI-8226 leukemia it was 11.3 µM; with SK-MEL-28 melanoma, 25.4 µM.
On to `Fc1ccccc1C1SCc2nc3cc4ccccc4cc3n21` (centres undefined), for which the TGI in the assay with CCRF-CEM leukemia, in the assay on HCT-15 colon, in the assay with HL-60(TB) leukemia, in the assay with HOP-62 NSCLC, with MOLT-4 leukemia and with NCI-H23 lung was greater than 100 µM in each case. The TGI with NCI-H460 lung, with NCI-H522 lung, in the assay with OVCAR-4 ovarian, with RPMI-8226 leukemia and in the assay on SK-MEL-28 melanoma was greater than 100 µM in each case.
Regarding `OC(c1ccc(-c2ccccc2)cc1)C(F)(F)c1nc2ccccc2o1` (centres undefined), the TGI in the assay with CCRF-CEM leukemia is greater than 100 µM; with HCT-15 colon, greater than 100 µM; with HL-60(TB) leukemia, greater than 74.1 µM; with HOP-62 NSCLC, greater than 73.6 µM; in the assay on MOLT-4 leukemia, greater than 100 µM; in the assay with NCI-H23 lung it was greater than 100 µM. The TGI with NCI-H460 lung was greater than 100 µM; in the assay on NCI-H522 lung it was greater than 100 µM; in the assay with OVCAR-4 ovarian, 50.4 µM; in the assay with RPMI-8226 leukemia it was greater than 100 µM; in the assay on SK-MEL-28 melanoma, greater than 100 µM.
Regarding `[N-]=[N+]=C1C(=O)C2CC3CC(C2)CC1C3`, the TGI with CCRF-CEM leukemia, with HCT-15 colon, with HL-60(TB) leukemia, with HOP-62 NSCLC, in the assay on MOLT-4 leukemia and in the assay with NCI-H23 lung was greater than 100 µM each time. Besides, the TGI with NCI-H460 lung, with NCI-H522 lung, in the assay with OVCAR-4 ovarian, in the assay on RPMI-8226 leukemia and in the assay on SK-MEL-28 melanoma was greater than 100 µM each time.
Turning to `CC1=NN(C(=O)CSc2nc3ccc(I)cc3c(=O)n2Cc2ccccc2)C(=O)C1`, the TGI in the assay with CCRF-CEM leukemia was greater than 100 µM; in the assay on HCT-15 colon it was 52.4 µM; in the assay with HL-60(TB) leukemia, greater than 100 µM; with HOP-62 NSCLC it was greater than 100 µM; in the assay with MOLT-4 leukemia, 67.8 µM; with NCI-H23 lung, 43.1 µM. Besides, the TGI in the assay with NCI-H460 lung is greater than 100 µM; in the assay on NCI-H522 lung, 21.2 µM; with OVCAR-4 ovarian, 87.8 µM; with RPMI-8226 leukemia, greater than 100 µM; with SK-MEL-28 melanoma, greater than 100 µM.
For the compound `C[C@H]1C=C2[C@@H]3CC(C)(C(=O)O)CC[C@]3(C)CC[C@]2(C)[C@]2(C)CC[C@H]3C(C)(C)[C@@H](OC(=O)c4cccc5c(=O)c6ccccc6[nH]c45)CC[C@]3(C)[C@@H]12` (some centres undefined), the TGI with CCRF-CEM leukemia, with HCT-15 colon, in the assay on HL-60(TB) leukemia, with HOP-62 NSCLC, in the assay on MOLT-4 leukemia and in the assay on NCI-H23 lung was greater than 100 µM in each case. The TGI in the assay on NCI-H460 lung, in the assay with NCI-H522 lung, with OVCAR-4 ovarian, in the assay on RPMI-8226 leukemia and in the assay with SK-MEL-28 melanoma was greater than 100 µM throughout.
`CN(C)CCCN1c2ccccc2CCc2ccc([N+](=O)[O-])cc21`: the TGI was greater than 100 µM in the assay on CCRF-CEM leukemia; 57.7 µM in the assay on HCT-15 colon; 75.6 µM in the assay on HL-60(TB) leukemia; 62.9 µM with HOP-62 NSCLC; greater than 100 µM in the assay with MOLT-4 leukemia; greater than 100 µM in the assay with NCI-H23 lung. Besides, the TGI in the assay with NCI-H460 lung is 42.3 µM; with NCI-H522 lung, 36.7 µM; with OVCAR-4 ovarian, greater than 100 µM; in the assay on RPMI-8226 leukemia it was greater than 100 µM; in the assay with SK-MEL-28 melanoma, 77.9 µM.
Consider `CC(=O)OCC1OC(n2c(=O)[nH]c(=O)c3sccc32)C(Br)C1OC(C)=O` (centres undefined), for which the TGI in the assay on CCRF-CEM leukemia, in the assay with HCT-15 colon, in the assay with HL-60(TB) leukemia, in the assay with HOP-62 NSCLC, in the assay with MOLT-4 leukemia and with NCI-H23 lung was greater than 100 µM in each case. For the same compound, the TGI in the assay on NCI-H460 lung, in the assay with NCI-H522 lung, in the assay on OVCAR-4 ovarian, in the assay with RPMI-8226 leukemia and in the assay on SK-MEL-28 melanoma was greater than 100 µM in each case.
Take `N#C/C(=C\c1c[nH]c2ccccc12)C(=O)c1ccc(O)c(O)c1`: the TGI in the assay on CCRF-CEM leukemia was greater than 36.2 µM; with HCT-15 colon it was greater than 100 µM; in the assay on HL-60(TB) leukemia, 59.5 µM; in the assay on HOP-62 NSCLC it was greater than 61.5 µM; in the assay on MOLT-4 leukemia it was 98.1 µM; in the assay on NCI-H23 lung, greater than 100 µM. Further, the TGI was greater than 100 µM in the assay on NCI-H460 lung; greater than 93 µM in the assay on NCI-H522 lung; greater than 100 µM in the assay with OVCAR-4 ovarian; greater than 31.6 µM in the assay on RPMI-8226 leukemia; greater than 100 µM with SK-MEL-28 melanoma.
